Source: patent US20210002725A1, “METHODS FOR THE DIAGNOSIS OF METABOLIC DISORDERS USING EPIMETABOLIC SHIFTERS, MULTIDIMENSIONAL INTRACELLULAR MOLECULES, OR ENVIRONMENTAL INFLUENCES” (Berg LLC, priority 2009, published 2021)

Columns and labels:
[1] = test system: HepG2 (liver cancer) cells; test: Real-time PCR Apoptosis Array; type: cell-based
Hif1 alpha = test: Western blot of Hif1 alpha levels in cells treated with Coenzyme Q10; type: cell-based, human; conditions: whole cell lysates of normal cells
Experimental: The Actin blots were stripped by incubating for 30 minutes with methanol, followed by two 10 minute washes with TBS-T, then 30 minutes of incubation with Stripping buffer at 50 deg C., and followed by two washes with 100 ml or more of TBS-T for 30′ each. The blots were scanned in laser scanner to check for complete stripping. The blots were activated with methanol for 5 seconds, washed with water for 5 minutes, and TBST for 15 minutes. The blots were blocked for 1 hour with 5% blocking reagent in TBS-T at room temperature and then washed 3 times with TBS-T (1×-15′; 2×5′ each) and probed with the primary antibody for Hif 1 alpha, Caspase 3 or PDHB in 5% BSA (at 1:200 by incubation overnight at 4 deg C. with gentle shaking. The primary antibody for Hif 1 alpha (Abcam ab2185; antirabbit) was at 1:500 dilution in 5% BSA. The primary antibody for Caspase 3 (Santacruz sc7272; antirabbit) was at 1:200 dilution in 5% BSA. The primary antibody for Pyruvate Dehydrogenase beta (PDHB) (Novus Biologicals H00005162-M03; antimouse) was at 1:500 dilution in 5% BSA. After incubation with primary antibodies, the membranes were washed 3 times with TBS-T (1×-15′; 2×5′ each) and probed with the secondary antibody (PDHB antimouse; Hif 1a and Caspase 3 antirabbit; 1:10,000 dilution) for 1 h at room temperature. […]

SCC cells = test: Real-time PCR Diabetes Array; type: cell-based; conditions: 100 μM
Source text: The control cells were untreated cells.

## COC1=C(OC)C(=O)C(C/C=C(\C)CC/C=C(\C)CC/C=C(\C)CC/C=C(\C)CC/C=C(\C)CC/C=C(\C)CC/C=C(\C)CC/C=C(\C)CC/C=C(\C)CCC=C(C)C)=C(C)C1=O [Q10, Coenzyme Q10]
[1]; 100 μM
  genes regulated in the Apoptosis Arrays: BAG1 and CASP9 and TNFRSF1A
[1]; 100 uM Q10, 16 hours
  BAG1 downregulation over control: approximately 6 fold
  CASP9 upregulation over control: approximately 61 fold
  TNFRSF1A downregulation over control: ~4 fold
[1]; 100 uM Q10, 48 hours
  BAG1 upregulation over control: ~1 fold
  CASP9 upregulation over control: approximately 55 fold
  TNFRSF1A upregulation over control: ~1 fold
Hif1 alpha
  Hif1a lower band: showed a decrease
SCC cells; at 6 and 24 hours
  TNFRSF1A gene Regulation: Down regulated at 6 and 24
SCC cells; at 6 hours
  G6PD gene Regulation: Down regulated at 6 hours.
  ICAM1 gene Regulation: Down regulated at 6 hours.
  INPPL1 gene Regulation: Down regulated at 6 hours.
  NOS3 gene Regulation: Down regulated at 6 hours.
  PIK3CD gene Regulation: Down regulated at 6 hours.
  PPARA gene Regulation: Down regulated at 6 hours.
  PYGL gene Regulation: Down regulated at 6 hours.
  SREBF1 gene Regulation: Down regulated at 6 hours.
  STXBP2 gene Regulation: Down regulated at 6 hours.
  TNF gene Regulation: Down regulated at 6 hours.
  VEGFA gene Regulation: Down regulated at 6 hours.
